Assay results as given in patent publication US10426772B2, “Use of ergot alkaloids as an anthelmintic agent” (priority 2016, dated 2019).

Test system: S. mansoni
Assay: Curative efficacy against schistosome infection in mice
Type: in vivo, Schistosoma mansoni
Protocol: Assays testing the curative efficacy of compounds against schistosome infection were performed on mice 6 weeks after exposure to cerceria. Drugs were dosed as follows. Ergotamine (95 mg/kg) was solubilized in 50 μL DMSO and diluted in 200 μL trappsol-saline and delivered by intraperitoneal injection twice a day for one week. Praziquantel (50 mg/kg) was similarly solubilized and injected intraperitoneally once a day for one week. The negative control cohort was given twice daily injections of DMSO (50 μL) added to 200 μL trappsol-saline solution. Mice were weighed and euthanized at 49 days post infection. Worms were harvested and counted as in the hepatic shift assay. Spleen and livers were weighed, and a segment of intestine was excised from the most distal region of the rectum to 10 cm above the cecum. The small and large intestines were separated by cutting immediately above and below the cecum. Each was cut lengthwise to expose the lumen and thoroughly washed in NaCl (1.2%) to remove excrement. Intestines were laid flat with the intestinal mucosa facing upwards and clamped between two glass plates to allow visual inspection of eggs using a stereo microscope.
Mice were injected with vehicle control (dmso), the current frontline anthelmintic (praziquantel) or ergotamine twice daily for one week at starting 42 days post infection.
All animals were sacrificed 49 days post infection, and worms were harvested by dissection of the mesenteric vasculature, portal vein and liver. […] Schistosomes lay large numbers of eggs within the host mesenteric system, and these progress through stages of development over approximately 5 days which can be scored looking at samples of the intestinal mucosa (Pellegrino et al., 1965). Therefore, it is possible to visually determine whether drug treatment has arrested parasite egg laying by observing a lack of developing eggs. Sections of both the large and small intestines were examined and eggs were manually counted and scored according to developmental stage (representative stages of embryo development shown in FIG. 20H-I, top).

[1] = infected mice, ergotamine 95 mg/kg i.p. twice a day, one week

## CN1C[C@H](C(=O)N[C@]2(C)O[C@@]3(O)[C@@H]4CCCN4C(=O)[C@H](Cc4ccccc4)N3C2=O)C=C2c3cccc4[nH]cc(c34)C[C@H]21 [ergotamine]
[1]
  increase of liver relative to uninfected littermates: 15±34%
  increase of spleen relative to uninfected littermates: 151±80%
mice, ergotamine 95 mg/kg i.p. twice a day for one week from 42 days post infection, sacrificed day 49
  reduction of worm burden relative to controls: 65±10%
mice, ergotamine 95 mg/kg twice a day, praziquantel 50 mg/kg once a day, i.p., one week, versus vehicle control
  decrease in intestinal egg counts: 96%
